Experimental data published in PubChem BioAssay AID256 (DTP/NCI, 2004).
Several values for one entry are separate records, joined by “and”; a condition that tells them apart may be missing. Equal entries are not always repeated. Toxic doses and inconclusive results are not listed.

Test system: CD2F1 mice, L1210 leukemia ip, survival T/C
Test: NCI In Vivo Anticancer Drug Screen. Data for tumor model L1210 Leukemia (intraperitoneal) in CD2F1 (CDF1) mice
Conditions: higher = longer survival
In short: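 Transplantable tumor in mice; compound-treated vs vehicle-treated groups. Read-out = treated/control ratio of the measured endpoint.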

[1] = endpoint: mean survival time, dose: 25.0 mg/kg/injection, schedule: Q01DX009 (ip), vehicle: saline
[2] = endpoint: mean survival time, dose: 50.0 mg/kg/injection, schedule: Q01DX009 (ip), vehicle: saline
[3] = endpoint: mean survival time, dose: 50.0 mg/kg/injection, schedule: Q04DX003 (ip), vehicle: saline
[4] = endpoint: mean survival time, dose: 100.0 mg/kg/injection, schedule: Q01DX009 (ip), vehicle: saline
[5] = endpoint: mean survival time, dose: 100.0 mg/kg/injection, schedule: Q04DX003 (ip), vehicle: saline
[6] = endpoint: mean survival time, dose: 50.0 mg/kg/injection, schedule: Q01DX009 (ip), vehicle: Klucel (hydroxypropylcellulose) (HPC)
[7] = endpoint: mean survival time, dose: 100.0 mg/kg/injection, schedule: Q01DX009 (ip), vehicle: Klucel (hydroxypropylcellulose) (HPC)
[8] = endpoint: mean survival time, dose: 12.5 mg/kg/injection, schedule: Q01DX009 (ip), vehicle: saline with Tween-80
[9] = endpoint: mean survival time, dose: 50.0 mg/kg/injection, schedule: Q01DX009 (ip), vehicle: saline with Tween-80
[10] = endpoint: mean survival time, dose: 200.0 mg/kg/injection, schedule: Q04DX003 (ip), vehicle: saline
[11] = endpoint: mean survival time, dose: 100.0 mg/kg/injection, schedule: Q04DX003 (ip), vehicle: saline with Tween-80
[12] = endpoint: mean survival time, dose: 200.0 mg/kg/injection, schedule: Q04DX003 (ip), vehicle: saline with Tween-80
[13] = endpoint: mean survival time, dose: 400.0 mg/kg/injection, schedule: Q04DX003 (ip), vehicle: saline with Tween-80
[14] = endpoint: mean survival time, dose: 100.0 mg/kg/injection, schedule: Q01DX009 (ip), vehicle: saline with Tween-80
[15] = endpoint: mean survival time, dose: 200.0 mg/kg/injection, schedule: Q01DX009 (ip), vehicle: saline with Tween-80
[16] = endpoint: mean survival time, dose: 400.0 mg/kg/injection, schedule: Q01DX009 (ip), vehicle: saline with Tween-80
[17] = endpoint: mean survival time, dose: 100.0 mg/kg/injection, schedule: Q04DX002 (ip), vehicle: saline with Tween-80
[18] = endpoint: mean survival time, dose: 200.0 mg/kg/injection, schedule: Q04DX002 (ip), vehicle: saline with Tween-80
[19] = endpoint: mean survival time, dose: 100.0 mg/kg/injection, schedule: Q01DX001 (ip), vehicle: saline with Tween-80
[20] = endpoint: mean survival time, dose: 200.0 mg/kg/injection, schedule: Q01DX001 (ip), vehicle: saline with Tween-80
[21] = endpoint: mean survival time, dose: 400.0 mg/kg/injection, schedule: Q01DX001 (ip), vehicle: saline with Tween-80

C=CC1CC(=O)N1 (configuration not stated)
T/C (endpoint: mean survival time, dose: 75.0 mg/kg/injection, schedule: Q01DX009 (ip), vehicle: saline): 102 % of control
T/C (endpoint: mean survival time, dose: 75.0 mg/kg/injection, schedule: Q04DX003 (ip), vehicle: saline): 97 % of control
T/C (endpoint: mean survival time, dose: 150.0 mg/kg/injection, schedule: Q01DX009 (ip), vehicle: saline): 103 % of control
T/C (endpoint: mean survival time, dose: 150.0 mg/kg/injection, schedule: Q04DX003 (ip), vehicle: saline): 101 % of control
T/C (endpoint: mean survival time, dose: 300.0 mg/kg/injection, schedule: Q01DX009 (ip), vehicle: saline): 103 % of control
T/C (endpoint: mean survival time, dose: 300.0 mg/kg/injection, schedule: Q04DX003 (ip), vehicle: saline): 95 % of control

CCOC(=O)Nc1cc(NC(C)CCCN(CC)CC)c2ncc(-c3ccccc3)nc2n1 (configuration not stated) (tested in a mixture with another compound)
T/C [1]: 89 % of control
T/C (endpoint: mean survival time, dose: 25.0 mg/kg/injection, schedule: Q04DX003 (ip), vehicle: saline): 98 % of control
T/C [2]: 94 % of control
T/C [3]: 98 % of control
T/C [4]: 95 % of control
T/C [5]: 108 % of control

CN(C)[C@@H]1C(=O)C(C(N)=O)=C(O)[C@]2(O)C(=O)C3C(=O)c4c(O)ccc(Cl)c4[C@](C)(O)[C@H]3C[C@@H]12 (some centres not stated)
T/C [6]: 107 % of control
T/C [7]: 118 % of control
T/C (endpoint: mean survival time, dose: 225.0 mg/kg/injection, schedule: Q01DX009 (ip), vehicle: acetone): 101 % of control

Fc1ccc(NCCS)cc1
T/C (endpoint: mean survival time, dose: 100.0 mg/kg/injection, schedule: Q01DX009 (ip), vehicle: saline sonified): 97 % of control
T/C (endpoint: mean survival time, dose: 200.0 mg/kg/injection, schedule: Q01DX009 (ip), vehicle: saline sonified): 98 % of control
T/C (endpoint: mean survival time, dose: 400.0 mg/kg/injection, schedule: Q01DX009 (ip), vehicle: saline sonified): 103 % of control

CCOC(=O)NNC(=O)OCC
T/C [8]: 97 % of control
T/C (endpoint: mean survival time, dose: 12.5 mg/kg/injection, schedule: Q01DX009 (ip), vehicle: saline): 90 % of control
T/C (endpoint: mean survival time, dose: 25.0 mg/kg/injection, schedule: Q01DX009 (ip), vehicle: saline with Tween-80): 96 % of control
T/C [1]: 101 % of control
T/C [9]: 102 % of control
T/C [2]: 105 % of control

OCC1OC(O)C(F)C(O)C1O (configuration not stated)
T/C [3]: 108 % of control
T/C [5]: 104 % of control
T/C [10]: 101 % of control
T/C (endpoint: mean survival time, dose: 400.0 mg/kg/injection, schedule: Q04DX003 (ip), vehicle: saline): 101 % of control

CC(=O)C(C(=O)Nc1ccccc1)c1cc(NS(=O)(=O)c2ccccc2)ccc1O (configuration not stated)
T/C [11]: 102 % of control
T/C [12]: 96 % of control
T/C [13]: 91 % of control

CC1=C/C(=N/NC(N)=O)CC(C)C1 (configuration not stated)
T/C [14]: 91 % of control
T/C [15]: 97 % of control
T/C [16]: 98 % of control

[Cl][Pt+2][Cl].[NH-]C(C(=O)O)C([NH-])C(=O)O (configuration not stated)
T/C [3]: 100 % of control
T/C [5]: 106 % of control
T/C [10]: 104 % of control

O=C(CCCCCCCCC(=O)N/N=C\c1ccccc1O)N/N=C\c1ccccc1O
T/C [8]: 97 % of control
T/C [11]: 98 % of control
T/C [12]: 93 % of control
T/C [13]: 93 % of control

O=c1[nH]cnc2ccccc12
T/C [17]: 96 % of control
T/C [18]: 101 % of control
T/C (endpoint: mean survival time, dose: 400.0 mg/kg/injection, schedule: Q04DX002 (ip), vehicle: saline with Tween-80): 104 % of control

CC(=O)Oc1cc(N=[N+]=[N-])c(OC(C)=O)cc1C
T/C [19]: 97 % of control
T/C [20]: 93 % of control

O=S1(=O)Oc2cccc3cccc1c23
T/C [14]: 95 % of control
T/C [11]: 102 % of control
T/C [15]: 98 % of control
T/C [12]: 102 % of control
T/C [16]: 92 % of control
T/C [13]: 103 % of control

COC(=O)C(c1ccccc1)C(SCc1ccccc1)c1ccccc1 (configuration not stated)
T/C [11]: 103 % of control
T/C [12]: 95 % of control
T/C [13]: 98 % of control

O=C(NC(CSC(c1ccc(Cl)cc1)c1ccc(Cl)cc1)C(=O)O)OCc1ccccc1 (configuration not stated)
T/C (endpoint: mean survival time, dose: 75.0 mg/kg/injection, schedule: Q01DX001 (ip), vehicle: saline): 91 % of control
T/C (endpoint: mean survival time, dose: 300.0 mg/kg/injection, schedule: Q01DX001 (ip), vehicle: saline): 97 % of control

O=c1[nH]cnc2nc(SCc3ccc([N+](=O)[O-])cc3)[nH]c12
T/C [6]: 90 % of control
T/C [7]: 94 % of control
T/C (endpoint: mean survival time, dose: 200.0 mg/kg/injection, schedule: Q01DX009 (ip), vehicle: Klucel (hydroxypropylcellulose) (HPC)): 105 % of control

COC(C(=O)C(O)C(C)O)C1Cc2cc3cc(OC4CC(OC5CC(O)C(O)C(C)O5)C(O)C(C)O4)c(C)c(O)c3c(O)c2C(=O)C1OC1CC(OC2CC(O)C(OC3CC(C)(O)C(O)C(C)O3)C(C)O2)C(O)C(C)O1 (configuration not stated)
T/C (endpoint: mean survival time, dose: 0.13 mg/kg/injection, schedule: Q01DX009 (ip), vehicle: saline): 101 % of control
T/C (endpoint: mean survival time, dose: 0.25 mg/kg/injection, schedule: Q01DX009 (ip), vehicle: saline): 97 % of control
T/C (endpoint: mean survival time, dose: 0.5 mg/kg/injection, schedule: Q01DX009 (ip), vehicle: saline): 101 % of control
T/C (endpoint: mean survival time, dose: 1.0 mg/kg/injection, schedule: Q01DX009 (ip), vehicle: saline): 95 % of control

Cc1ccc(S(=O)(=O)OC2CC3CC2C2C4C=CC(C4)C32)cc1 (configuration not stated)
T/C [9]: 101 % of control
T/C [14]: 93 % of control
T/C [15]: 101 % of control

Cc1ccc(-n2c(O)c(N=Nc3ccccc3)c(=O)n(-c3ccccc3)c2=S)cc1
T/C [19]: 100 % of control
T/C [20]: 100 % of control
T/C [21]: 86 % of control

CC(C)CCn1cnc2c(=S)nc(N)[nH]c21
T/C (endpoint: mean survival time, dose: 50.0 mg/kg/injection, schedule: Q01DX001 (ip), vehicle: saline with Tween-80): 118 % of control
T/C [19]: 95 % of control

[Co+3].[NH-]CC[NH-].[NH-]CC[NH-].[NH-]CC[NH-].[O-][I+2]([O-])O
T/C [17]: 100 % of control
T/C [18]: 96 % of control

O=C1C(c2ccccc2)=C(c2ccccc2)c2c(-c3ccccc3)ccc(-c3ccccc3)c21
T/C [11]: 89 % of control
T/C [12]: 100 % of control
T/C [13]: 94 % of control

CC1(C)C2CCC(I)(C2)C1O (configuration not stated)
T/C (endpoint: mean survival time, dose: 50.0 mg/kg/injection, schedule: Q04DX003 (ip), vehicle: saline with Tween-80): 101 % of control
T/C [11]: 101 % of control
T/C [12]: 101 % of control

COc1ccc(NC(=O)Nc2ccc(C)cc2C)cc1
T/C [14]: 86 % of control
T/C [15]: 88 % of control

NC(CCCCNC(c1ccccc1)(c1ccccc1)c1ccccc1)C(=O)O (configuration not stated)
T/C [1]: 96 % of control
T/C [2]: 94 % of control
T/C [4]: 103 % of control

CC(C)C(N)C(=O)Nc1nncs1 (configuration not stated)
T/C [1]: 103 % of control
T/C [2]: 110 % of control
T/C [4]: 166 % of control
T/C (endpoint: mean survival time, dose: 200.0 mg/kg/injection, schedule: Q01DX009 (ip), vehicle: saline): 117 % of control and 97 % of control
T/C (endpoint: mean survival time, dose: 400.0 mg/kg/injection, schedule: Q01DX009 (ip), vehicle: saline): 89 % of control and 90 % of control
T/C (endpoint: median survival time, dose: 12.5 mg/kg/injection, schedule: Q01DX009 (ip), vehicle: saline): 94 % of control
T/C (endpoint: median survival time, dose: 25.0 mg/kg/injection, schedule: Q01DX009 (ip), vehicle: saline): 109 % of control and 112 % of control
T/C (endpoint: median survival time, dose: 50.0 mg/kg/injection, schedule: Q01DX009 (ip), vehicle: saline): 151 % of control
T/C (endpoint: median survival time, dose: 100.0 mg/kg/injection, schedule: Q01DX009 (ip), vehicle: saline): 158 % of control
T/C (endpoint: median survival time, dose: 400.0 mg/kg/injection, schedule: Q01DX009 (ip), vehicle: saline): 95 % of control

CC1(C)N=C(N)N=C(N)N1c1cccc(CCCc2ccccc2)c1
T/C (endpoint: mean survival time, dose: 6.25 mg/kg/injection, schedule: Q01DX001 (ip), vehicle: saline): 96 % of control

CN1CCc2cc3c(cc2C1)OCO3
T/C (endpoint: mean survival time, dose: 75.0 mg/kg/injection, schedule: Q01DX001 (ip), vehicle: other): 98 % of control
T/C (endpoint: mean survival time, dose: 100.0 mg/kg/injection, schedule: Q01DX001 (ip), vehicle: saline): 97 % of control
T/C (endpoint: mean survival time, dose: 150.0 mg/kg/injection, schedule: Q01DX001 (ip), vehicle: other): 92 % of control

O=C(/C=C(/Nc1ccccc1)c1ccccc1)c1ccccc1
T/C [19]: 90 % of control
T/C [20]: 92 % of control
T/C [21]: 86 % of control
